Reference: patent publication US8951752B2, “N-demethyase genes and uses thereof” (priority 2011, dated 2015)

Key:
[1] = test system: cell extracts prepared from P. putida CBB5; assay: NADH-dependent N-demethylase activity of CBB5 cell extracts; format: biochemical, Pseudomonas putida CBB5; conditions: 0.5 mM substrate, 7.2 mg mL^−1 protein
[2] = target: T1, NdmA-His6 (Pseudomonas putida, UniProt H9N289); assay: Methylxanthine N-demethylase assay and kinetics, NdmA-His6 with His6-NdmD; format: biochemical, Pseudomonas putida CBB5
T1 construct: made in house; host or cells: E. coli BL21(DE3)
T1 sequence (H9N289 1-351): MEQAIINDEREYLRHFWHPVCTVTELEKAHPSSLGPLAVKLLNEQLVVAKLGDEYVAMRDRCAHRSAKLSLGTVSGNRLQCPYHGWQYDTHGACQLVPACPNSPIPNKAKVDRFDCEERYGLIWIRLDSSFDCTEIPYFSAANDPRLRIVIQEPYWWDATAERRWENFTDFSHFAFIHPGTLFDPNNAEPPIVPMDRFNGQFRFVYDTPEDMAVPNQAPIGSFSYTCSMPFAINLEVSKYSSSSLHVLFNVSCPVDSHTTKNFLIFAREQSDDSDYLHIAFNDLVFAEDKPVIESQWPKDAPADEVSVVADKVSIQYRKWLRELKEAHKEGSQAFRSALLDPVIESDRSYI
Protocol: Methylxanthine N-demethylase activity assay contained, in 1-ml total volume, 0.5 mM methylxanthine, 1 mM NADH, 50 μM Fe(NH4)2(SO4)2, and an appropriate amount of NdmA-His6 or NdmB-His6 (7.4 μg-2.5 mg protein depending on substrate specificity) in 50 mM KPi buffer (pH 7.5). Approximately 4 U of partially purified reductase, prepared as described previously (Summers et al., 2011) or 59 U of purified His6-NdmD was added to reaction mixture. Catalase from bovine liver (4,000 U) was also added to reactions containing His6-NdmD. The reaction mixture was incubated at 30° C. with 300 rpm shaking on an incubating microplate shaker (VWR, Radnor, Pa.). Periodically, a small aliquot was sampled from the reaction mixture and mixed with equal volume of acetonitrile for quantifying concentrations of methylxanthines and N-demethylated products by HPLC. One unit of N-demethylase activity was defined as the consumption of one […] methylxanthine per minute.
Apparent kinetic parameters of NdmA-His6 and NdmB-His6 were determined by measuring the initial rate of disappearance (vo) of methylxanthines in 50 mM KPi buffer (pH 7.5) at 30° C. The initial substrate concentrations (ESI) used in these experiments were from 25 to 500 μM. Substrates were incubated with His6-NdmD plus either NdmA-His6 or NdmB-His6 under standard conditions for 15 minutes. At 1, 5, 10, and 15 minutes, samples were removed from the reaction mixtures to quantitate substrate concentrations by HPLC. Plots of substrate concentrations against time were used to determine the initial rates of disappearance of substrates which were linear over 15 minutes. The apparent kinetic parameters were determined from Michaelis-Menten plots of vo against [S] fitted with the equation

[3] = target: T2, Caffeine dehydrogenase (Cdh) from CBB1 (Pseudomonas sp., UniProt D7REY3); conditions: cited from earlier work
T2 sequence (D7REY3 1-791): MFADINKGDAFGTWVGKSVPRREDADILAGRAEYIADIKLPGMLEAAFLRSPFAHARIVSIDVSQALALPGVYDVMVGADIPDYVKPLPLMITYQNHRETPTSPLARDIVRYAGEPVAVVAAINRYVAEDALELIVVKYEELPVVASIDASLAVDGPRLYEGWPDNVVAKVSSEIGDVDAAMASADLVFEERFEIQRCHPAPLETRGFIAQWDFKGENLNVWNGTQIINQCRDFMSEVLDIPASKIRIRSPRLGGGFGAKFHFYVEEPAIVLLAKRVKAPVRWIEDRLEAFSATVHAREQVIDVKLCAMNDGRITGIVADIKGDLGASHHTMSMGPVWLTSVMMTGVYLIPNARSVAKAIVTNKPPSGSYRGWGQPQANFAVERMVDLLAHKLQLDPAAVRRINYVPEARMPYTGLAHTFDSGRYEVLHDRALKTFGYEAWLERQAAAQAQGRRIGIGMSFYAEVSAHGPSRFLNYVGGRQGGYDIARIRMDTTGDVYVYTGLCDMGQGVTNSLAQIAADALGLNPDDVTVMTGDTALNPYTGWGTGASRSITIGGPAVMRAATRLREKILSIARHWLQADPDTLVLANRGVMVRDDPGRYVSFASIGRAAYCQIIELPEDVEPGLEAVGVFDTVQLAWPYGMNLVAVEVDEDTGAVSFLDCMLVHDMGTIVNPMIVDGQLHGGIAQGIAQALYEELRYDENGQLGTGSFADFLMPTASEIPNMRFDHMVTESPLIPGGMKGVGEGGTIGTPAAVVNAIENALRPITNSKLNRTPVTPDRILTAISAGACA
T2 sequence (D7REY4 1-295 partner): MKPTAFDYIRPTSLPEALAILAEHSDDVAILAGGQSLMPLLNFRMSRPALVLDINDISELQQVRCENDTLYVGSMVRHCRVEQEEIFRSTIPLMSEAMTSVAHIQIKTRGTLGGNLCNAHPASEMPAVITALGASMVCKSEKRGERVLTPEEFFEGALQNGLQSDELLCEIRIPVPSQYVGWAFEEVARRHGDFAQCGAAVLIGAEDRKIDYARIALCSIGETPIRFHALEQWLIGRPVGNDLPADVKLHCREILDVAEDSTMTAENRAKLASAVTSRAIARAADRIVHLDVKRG
T2 sequence (D7REY5 1-167 partner): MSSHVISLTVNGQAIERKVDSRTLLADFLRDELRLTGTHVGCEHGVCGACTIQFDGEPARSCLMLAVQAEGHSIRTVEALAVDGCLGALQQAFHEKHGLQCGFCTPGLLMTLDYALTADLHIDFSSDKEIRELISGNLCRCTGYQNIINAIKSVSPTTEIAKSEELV

[4] = test system: NdmC

With `Cn1cnc2c1c(=O)[nH]c(=O)n2C` [Theobromine, 3,7-dimethylxanthine] the “degradation rate compared with paraxanthine” value [1] was “significantly slower”, the “N-demethylase activity” value ([2]; NdmA) was “inactive” and the Km ([2]; NdmA-His6, 30° C., pH 7.5, ∞ where no activity) was “∞”. The “preference as a substrate, times less than caffeine” value [3] was 50 times and the “N-demethylation by NdmC fraction” value [4] was “not N-demethylated”.
